Laboratory results reported in publication PMC7067850, “Identification of highly potent and selective inhibitor, TIPTP, of the p22phox-Rubicon axis as a therapeutic agent for rheumatoid arthritis” (Scientific Reports, 2020).

Legend:
[1] = system: collagen antibody-induced arthritis; experiment: Collagen antibody-induced arthritis (CAIA) mouse model, mice transduced with Ad-Rubicon; assay type: in vivo
Method: Collagen antibody-induced arthritis mouse model was induced as previously described. Mice received a single‐dose intravenous injection of anti-type II collagen antibody cocktail (8 mg/mouse) (Arthrogen‐CIA Arthritogenic Monoclonal Antibody, no. 53010; Chondrex) on day −3 and an intraperitoneal injection of 100 μg of lipopolysaccharide on day 0 and were then monitored for the indicated times. Mice were sacrificed under anesthesia for the indicated times and knee joints were isolated. All animal-related procedures were reviewed and approved by the Institutional Animal Care and Use Committee of the Hanyang University (protocol 2017–0219). All animal experiments were performed in accordance with Korean Food and Drug Administration guidelines. […]
Figure 5 TIPTP protects Rubicon-expressed CAIA mice mortality. […] (a) The survival of CAIA mice was monitored for 15 days and mortality was measured for n = 10 mice per group. […] (b) Clinical arthritis score and swelling of paws, or (c) representative H&E staining of the ankle joints of each group were determined at 9 days of CAIA (left). […] Statistical significance was determined by two-way analysis of variance (ANOVA) with Tukey’s posttest; **P < 0.01 compared with Ad-Vector+Vehicle (a). […]
Arthritis mice were evaluated for disease progression three times a week as follows ^1,2. […]

[2] = system: synoviocytes from RA patients; experiment: Synoviocytes from RA patients ex vivo (co-IP, confocal, ELISA, immunoblot); assay type: cell-based, human
From the text: Synovial tissue specimens were obtained from all female patients with RA (n = 16, 60.5 years ± 6.0) or OA (n = 10, 59.5 years ± 7.2) during open synovectomy or joint replacement surgery at Hanyang University Hospital. All patients gave informed consent, and the procedure was approved by the Ethics Committee of Hanyang University Hospital approved this study (2017-05-003). This study was approved by the bioethics committee of The Red Cross (Seoul, South Korea), which oversees studies using samples from human subjects, and all methods were performed in accordance with the relevant guidelines and regulations.
Immunoblot and immunoprecipitation assays were performed as described previously[18],[23]. For immunoprecipitation, cells were harvested and then lysed in NP-40 buffer supplemented with a complete protease inhibitor cocktail (Roche). After pre-clearing with protein A/G agarose beads (GE Healthcare Life Science) for 1 h at 4 °C, whole-cell lysates were used for immunoprecipitation with the indicated antibodies. Generally, 1–4 μg of commercial antibody was added to 1 ml of cell lysates and incubated at 4 °C for 8 to 12 h. After the addition of protein A/G agarose beads for 6 h, immunoprecipitants were extensively washed with lysis buffer and eluted with SDS loading buffer by boiling for 5 min.
Cell culture supernatants, mice sera and synovial fluid were analyzed for cytokine content using the BD OptEIA ELISA set (BD Pharmingen) for the detection of TNF-α, IL-6, IL-1β, and IL-18. All assays were performed as recommended by the manufacturer.
Figure 6 TIPTP is active for cells from healthy humans or patients with RA. (a and b) LPS-primed human monocytes were treated with TIPTP (0.01, 0.1, 1 μM) for 30 min, and then activated with ATP for the 30 min. (a) IP with αp22phox or αRubicon, followed by IB with αRubicon or αp22phox. Loading control was used for IB with αActin. (b) Culture supernatants were harvested and analyzed for cytokines by ELISA (left). […] (e) Culture supernatants were harvested and analyzed for cytokines by ELISA (left). […]

C[C@@H](Oc1cccc(-n2cc3c(n2)CCCC3)c1)C(=O)Nc1nnc(C(F)(F)F)s1 [TIPTP, (R)-2-(3-(4,5,6,7-tetrahydro-2H-indazol-2-yl)phenoxy)-N-(5-(trifluoromethyl)-1,3,4-thiadiazol-2-yl)propanamide]
survival rate ([1]; CAIA mice transduced with Ad-Rubicon, TIPTP every 2 days intraperitoneal, monitored 15 days (Fig. 5a)): 90%
arthritic clinical scores, paw swelling, and histopathological evaluation vs vehicle ([1]; Rubicon-expressing and vector CAIA mice (Fig. 5b,c)): markedly decreased
p22phox–Rubicon interaction ([2]; RA patient cells, WB and confocal (Fig. 6c,d)): efficiently inhibit
p22phox-NOX2, NOX4, or NOX5 interaction ([2]; RA patient synoviocytes (Supplemental Fig. 7)): not inhibit
caspase-1 activation, and IL-1β and IL-18 production ([2]; freshly isolated RA synoviocytes without NLRP3 agonists (Fig. 6e)): inhibited in a dose-dependent manner
